Experimental data published in PubChem BioAssay (NCI).
“And” between values parts separate entries of the source, which are not always exact repeats. Equal entries are not always repeated.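 These data come from cells grown in 96-well plates and exposed to compound for 48 hours at five concentrations. Here, GI50 denotes the concentration required for 50% inhibition of growth. TGI: total growth inhibition.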

Experiments:
Assay in all cases: NCI tumour cell line growth inhibition, 48 h
A549 NSCLC = test system: A549 NSCLC
HCT-116 colon = test system: HCT-116 colon
HCT-15 colon = test system: HCT-15 colon
HOP-92 NSCLC = test system: HOP-92 NSCLC
K-562 leukemia = test system: K-562 leukemia
MCF7 breast = test system: MCF7 breast
OVCAR-3 ovarian = test system: OVCAR-3 ovarian
SF-539 CNS = test system: SF-539 CNS
SNB-75 CNS = test system: SNB-75 CNS
SR leukemia = test system: SR leukemia

Work on `CC1(C)N=C(N)N=C(N)N1c1ccc(CCCC(=O)Nc2ccc(S(=O)(=O)F)cc2)cc1` yielded a GI50 (A549 NSCLC) of 9.82 µM, a TGI (A549 NSCLC) greater than 100 µM and a GI50 (HCT-116 colon) of 3.69 µM. It also gave a TGI (HCT-116 colon) greater than 100 µM, a GI50 (HCT-15 colon) of 39.3 µM and a TGI (HCT-15 colon) greater than 100 µM. For the same compound, the GI50 (HOP-92 NSCLC) was 10.7 µM, the TGI (HOP-92 NSCLC) was greater than 100 µM and the GI50 (K-562 leukemia) was 2.13 µM. For the same compound, the TGI (K-562 leukemia) was greater than 100 µM, the GI50 (MCF7 breast) was 5.23 µM and the TGI (MCF7 breast) was greater than 100 µM. It also gave a GI50 (OVCAR-3 ovarian) of 33.6 µM, a TGI (OVCAR-3 ovarian) greater than 100 µM and a GI50 (SF-539 CNS) of 2.62 µM. It also gave a TGI (SF-539 CNS) greater than 100 µM, a GI50 (SNB-75 CNS) of 10.2 µM and a TGI (SNB-75 CNS) greater than 100 µM. The GI50 (SR leukemia) was 1.53 µM and the TGI (SR leukemia) was greater than 100 µM.
`O=c1ccc(N=Nc2ccccc2)ccc1O` showed a TGI (A549 NSCLC) of 27.8 µM, a TGI (HCT-116 colon) of 26 µM and a TGI (HCT-15 colon) of 19.8 µM. It also gave a TGI (HOP-92 NSCLC) of 41.1 µM, a TGI (K-562 leukemia) greater than 100 µM and a TGI (MCF7 breast) greater than 100 µM. The TGI (OVCAR-3 ovarian) was 22 µM, the TGI (SF-539 CNS) was 37.2 µM and the TGI (SNB-75 CNS) was 57.8 µM. It also gave a TGI (SR leukemia) of 22.2 µM.
`O=C(O)CNc1ccc2c(c1)Cc1cc(Br)ccc1-2` showed a TGI (A549 NSCLC) greater than 81.3 µM, a TGI (HCT-116 colon) greater than 49.1 µM and a TGI (HCT-15 colon) greater than 100 µM. The TGI (HOP-92 NSCLC) was greater than 90.7 µM, the TGI (K-562 leukemia) was greater than 40.9 µM and the TGI (MCF7 breast) was greater than 100 µM. It also gave a TGI (OVCAR-3 ovarian) greater than 100 µM, a TGI (SF-539 CNS) of 58.4 µM and a TGI (SNB-75 CNS) greater than 89.8 µM. For the same compound, the TGI (SR leukemia) was 1.31 µM.
Compound `COc1ccc2nc3ccccc3c(NCCNCCO)c2c1` has a GI50 (A549 NSCLC) of 0.673 µM, a TGI (A549 NSCLC) of 7.81 µM and a GI50 (HCT-116 colon) of 0.352 µM. It also gave a TGI (HCT-116 colon) of 4.84 µM, a GI50 (HCT-15 colon) of 2.04 µM and a TGI (HCT-15 colon) of 22.2 µM. It also gave a GI50 (HOP-92 NSCLC) of 0.908 µM, a TGI (HOP-92 NSCLC) of 4.22 µM and a GI50 (K-562 leukemia) of 0.356 µM. It also gave a TGI (K-562 leukemia) of 4.33 µM, a GI50 (MCF7 breast) of 0.363 µM and a TGI (MCF7 breast) of 7.33 µM. For the same compound, the GI50 (OVCAR-3 ovarian) was 0.624 µM, the TGI (OVCAR-3 ovarian) was 2.77 µM and the GI50 (SF-539 CNS) was 0.801 µM. The TGI (SF-539 CNS) was 2.99 µM, the GI50 (SNB-75 CNS) was 0.854 µM and the TGI (SNB-75 CNS) was 2.13 µM. For the same compound, the GI50 (SR leukemia) was 0.214 µM and the TGI (SR leukemia) was 1.33 µM.
`COc1cccc(/C=C2\N=C(c3ccccc3)OC2=O)c1` was tested, and the TGI (A549 NSCLC) was greater than 100 µM, the TGI (HCT-116 colon) was greater than 100 µM and the TGI (HCT-15 colon) was greater than 100 µM. The TGI (HOP-92 NSCLC) was greater than 100 µM, the TGI (K-562 leukemia) was greater than 100 µM and the TGI (MCF7 breast) was greater than 100 µM. For the same compound, the TGI (OVCAR-3 ovarian) was greater than 100 µM, the TGI (SF-539 CNS) was greater than 100 µM and the TGI (SNB-75 CNS) was 77.1 µM. The TGI (SR leukemia) was 65.2 µM.
`NNc1c(C(N)=O)c2c(N)ncnc2n1C1OC(CO)C(O)C1O` (stereo not drawn) was tested, and the GI50 (A549 NSCLC) was 0.0336 µM and 0.0924 µM, the TGI (A549 NSCLC) was 12.7 µM and 3.44 µM and the GI50 (HCT-116 colon) was less than 0.01 µM. For the same compound, the GI50 (HCT-15 colon) was 0.0292 µM, the TGI (HCT-15 colon) was 1.5 µM and 3.04 µM and the GI50 (HOP-92 NSCLC) was 0.0285 µM and 0.0507 µM. For the same compound, the TGI (HOP-92 NSCLC) was 0.347 µM and 0.333 µM, the GI50 (K-562 leukemia) was 0.0199 µM and the TGI (K-562 leukemia) was 16.3 µM and > 100 µM. The GI50 (MCF7 breast) was 0.0729 µM, the TGI (MCF7 breast) was 0.179 µM and 1.29 µM and the GI50 (OVCAR-3 ovarian) was 0.0176 µM and 0.0219 µM. For the same compound, the TGI (OVCAR-3 ovarian) was 0.4 µM and 0.335 µM, the GI50 (SF-539 CNS) was 0.0529 µM and 0.0718 µM and the TGI (SF-539 CNS) was 1.15 µM and 0.273 µM. For the same compound, the GI50 (SNB-75 CNS) was 0.106 µM, the TGI (SNB-75 CNS) was 1.09 µM and 0.448 µM and the GI50 (SR leukemia) was 0.0252 µM. The TGI (SR leukemia) was 0.0194 µM and 0.0639 µM.
With `COc1ccc(-c2nsc3c2NC(=O)CC3c2ccsc2)cc1` (stereo not drawn) the GI50 (A549 NSCLC) was 0.211 µM, the TGI (A549 NSCLC) was greater than 100 µM and the GI50 (HCT-116 colon) was 0.126 µM. For the same compound, the TGI (HCT-116 colon) was greater than 100 µM, the GI50 (HCT-15 colon) was 0.101 µM and the TGI (HCT-15 colon) was greater than 100 µM. The GI50 (HOP-92 NSCLC) was 0.334 µM, the TGI (HOP-92 NSCLC) was 81.5 µM and the GI50 (K-562 leukemia) was 0.0469 µM. The TGI (K-562 leukemia) was greater than 100 µM, the GI50 (MCF7 breast) was 0.32 µM and the TGI (MCF7 breast) was greater than 100 µM. The GI50 (OVCAR-3 ovarian) was 0.211 µM, the TGI (OVCAR-3 ovarian) was 0.611 µM and the GI50 (SF-539 CNS) was 0.266 µM. It also gave a GI50 (SNB-75 CNS) of 0.119 µM, a TGI (SNB-75 CNS) greater than 100 µM and a GI50 (SR leukemia) of 0.0384 µM. It also gave a TGI (SR leukemia) greater than 100 µM.
`CC(C)(C)N/N=C(/Cc1nc2c3c(ccc2[nH]c1=O)C(=O)c1ccccc1C3=O)C(=O)NC1=C(Cl)C(=O)c2ccccc2C1=O` gave a TGI (A549 NSCLC) greater than 100 µM, a TGI (HCT-116 colon) greater than 100 µM and a TGI (HCT-15 colon) of 20.3 µM. It also gave a TGI (HOP-92 NSCLC) greater than 100 µM, a TGI (K-562 leukemia) greater than 100 µM and a TGI (MCF7 breast) greater than 100 µM. It also gave a TGI (OVCAR-3 ovarian) greater than 100 µM, a TGI (SF-539 CNS) greater than 100 µM and a TGI (SNB-75 CNS) of 9.03 µM. For the same compound, the TGI (SR leukemia) was greater than 100 µM.
`CC(C)(Oc1ccc(-c2cccc3ccccc23)cc1)C(=O)O` showed a TGI (A549 NSCLC) greater than 100 µM, a TGI (HCT-116 colon) greater than 100 µM and a TGI (HCT-15 colon) greater than 100 µM. The TGI (HOP-92 NSCLC) was greater than 100 µM, the TGI (K-562 leukemia) was greater than 100 µM and the TGI (MCF7 breast) was greater than 100 µM. For the same compound, the TGI (OVCAR-3 ovarian) was greater than 100 µM, the TGI (SF-539 CNS) was greater than 100 µM and the TGI (SNB-75 CNS) was greater than 100 µM. For the same compound, the TGI (SR leukemia) was greater than 100 µM.
With `CC(C)=C[C@@H]1C[C@H](C)[C@H]2CC[C@H](C)c3c(O)c(OC4OC(C)C(O)C(O)C4O)c(C)c1c32` (stereo partly drawn) the GI50 (A549 NSCLC) was 11.9 µM, the TGI (A549 NSCLC) was 24.2 µM and the GI50 (HCT-116 colon) was 10.9 µM. For the same compound, the TGI (HCT-116 colon) was 22.9 µM, the GI50 (HCT-15 colon) was 14.5 µM and the TGI (HCT-15 colon) was 27.6 µM. It also gave a GI50 (HOP-92 NSCLC) of 14.8 µM, a TGI (HOP-92 NSCLC) of 28.5 µM and a GI50 (K-562 leukemia) of 3.97 µM. It also gave a TGI (K-562 leukemia) of 19.6 µM, a GI50 (MCF7 breast) of 13.9 µM and a TGI (MCF7 breast) of 27.7 µM. For the same compound, the GI50 (OVCAR-3 ovarian) was 1.93 µM, the TGI (OVCAR-3 ovarian) was 8.43 µM and the GI50 (SF-539 CNS) was 17.9 µM. It also gave a TGI (SF-539 CNS) of 33 µM, a GI50 (SNB-75 CNS) of 14.4 µM and a TGI (SNB-75 CNS) of 27.7 µM. It also gave a GI50 (SR leukemia) of 2.59 µM and a TGI (SR leukemia) of 10.4 µM.
`CCn1c(-c2nonc2N)nc2ccccc21` was tested, and the GI50 (A549 NSCLC) was greater than 25 µM, the TGI (A549 NSCLC) was greater than 25 µM and the GI50 (HCT-116 colon) was greater than 25 µM. For the same compound, the TGI (HCT-116 colon) was greater than 25 µM, the GI50 (HCT-15 colon) was greater than 25 µM and the TGI (HCT-15 colon) was greater than 25 µM. The GI50 (HOP-92 NSCLC) was 17 µM, the TGI (HOP-92 NSCLC) was greater than 25 µM and the GI50 (K-562 leukemia) was greater than 25 µM. The TGI (K-562 leukemia) was greater than 25 µM, the GI50 (MCF7 breast) was greater than 25 µM and the TGI (MCF7 breast) was greater than 25 µM. The GI50 (OVCAR-3 ovarian) was greater than 25 µM, the TGI (OVCAR-3 ovarian) was greater than 25 µM and the GI50 (SF-539 CNS) was greater than 25 µM. The TGI (SF-539 CNS) was greater than 25 µM, the GI50 (SNB-75 CNS) was greater than 25 µM and the TGI (SNB-75 CNS) was greater than 25 µM. The GI50 (SR leukemia) was greater than 25 µM and the TGI (SR leukemia) was greater than 25 µM.
